Reference: patent US9598424B2 (Takeda Pharmaceutical Company Limited, priority 2014, dated 2017)

What was measured:
[1] = target: T1, Full length human TBK1 (Homo sapiens, UniProt Q9UHD2); assay: Inhibition of TBK1 Enzyme (Caliper microfluidic assay); format: biochemical; conditions: 25 μM ATP, 60 min at RT; -log(IC50), IC50 molar; read-out: TBK1 Inhibition (pIC50) (converted)
T1 construct: Full length human TBK1 with an N-terminal His-tag; His-tag (N); made in house; host or cells: Sf9 insect cells (baculovirus, pFastBac1)
T1 sequence (Q9UHD2 1-729): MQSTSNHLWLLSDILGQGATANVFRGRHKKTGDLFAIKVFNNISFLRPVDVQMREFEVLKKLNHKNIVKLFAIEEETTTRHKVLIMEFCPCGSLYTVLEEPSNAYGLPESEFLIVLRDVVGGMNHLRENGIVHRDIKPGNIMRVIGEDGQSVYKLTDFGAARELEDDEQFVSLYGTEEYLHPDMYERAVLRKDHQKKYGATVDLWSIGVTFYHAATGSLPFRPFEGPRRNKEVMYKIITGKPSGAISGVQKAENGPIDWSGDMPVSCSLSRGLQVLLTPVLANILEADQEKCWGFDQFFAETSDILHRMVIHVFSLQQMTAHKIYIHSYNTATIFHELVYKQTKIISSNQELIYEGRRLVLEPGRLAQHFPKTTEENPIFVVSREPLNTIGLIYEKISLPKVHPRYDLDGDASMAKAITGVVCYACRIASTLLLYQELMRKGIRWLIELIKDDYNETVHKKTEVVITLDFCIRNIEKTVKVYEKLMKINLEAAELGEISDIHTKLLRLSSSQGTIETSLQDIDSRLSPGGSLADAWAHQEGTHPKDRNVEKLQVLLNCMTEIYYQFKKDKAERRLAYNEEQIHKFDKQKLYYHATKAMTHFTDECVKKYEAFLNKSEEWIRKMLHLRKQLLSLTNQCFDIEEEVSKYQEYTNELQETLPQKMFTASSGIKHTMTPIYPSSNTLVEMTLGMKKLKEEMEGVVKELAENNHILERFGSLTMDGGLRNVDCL
In short: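 Enzyme: His-tagged full-length TBK1 expressed in Sf9. Reaction 60 min at RT in 20 mM Hepes pH 7.4, 10 mM MgCl2, 1 mM EDTA, 0.01% Brij-L23, 1 mM DTT, with 5FAM-peptide (added at 1 μM) and TBK1/ATP mix (added at 3 nM/25 μM), then EDTA-quenched. Conversion measured by microfluidic separation; 11-point 2.5-fold series fit to pIC50.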

[2] = target: T2, TBK1 (Homo sapiens, UniProt Q9UHD2); assay: Inhibition of TBK1 in Cells (TLR3 driven ISRE β-lactamase reporter assay); format: cell-based; conditions: poly IC-LMW stimulation 16 hrs; -log(EC50), EC50 molar; read-out: Inhibition of TBK1 in cells pEC50 (EC) (converted)
T2 construct: host or cells: RA1-ISRE beta-lactamase reporter cells
T2 sequence (Q9UHD2 1-729): T1 sequence (Q9UHD2 1-729)
In short: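 RA1-ISRE β-lactamase reporter cells (50,000/well) treated with 11-point 2.5-fold compound dilutions and stimulated with 0.15 mg/ml poly IC-LMW for 16 hrs. Reporter read by CCF4-AM FRET; EC50 from non-linear fit of percent inhibition, reported as pEC50 (molar).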

Row | Compound | IC50 [1] [nM] | EC50 [2] [nM] | melting point [°C]
1 | COCC(=O)Nc1cn2cc(-c3csc(C(=O)NCC(F)(F)F)c3)ccc2n1 [Example 14, 4-(2-(2-methoxyacetamido)imidazo[1,2-a]pyridin-6-yl)-N-(2,2,2-trifluoroethyl)thiophene-2-carboxamide] | 39.8 | 1740 | 230 to 232
2 | CC(F)(F)CNC(=O)c1cc(-c2ccc3nc(NC(=O)C4CC4)cn3c2)cs1 [Example 3, 4-(2-(cyclopropanecarboxamido)imidazo[1,2-a]pyridin-6-yl)-N-(2,2-difluoropropyl)thiophene-2-carboxamide] | 5.01 | 166 | 117 to 119
3 | Cc1c(-c2ccc3nc(NC(=O)C4CC4)cn3c2)n[nH]c1C(=O)NCC(F)(F)F [Example 25, 3-(2-(cyclopropanecarboxamido)imidazo[1,2-a]pyridin-6-yl)-4-methyl-N-(2,2,2-trifluoroethyl)-1H-pyrazole-5-carboxamide] | 79.4 | 3310 | > 275
4 | COCCC(=O)Nc1cn2cc(-c3csc(C(=O)NCC(F)(F)F)c3)ccc2n1 [Example 15, 4-(2-(3-methoxypropanamido)imidazo[1,2-a]pyridin-6-yl)-N-(2,2,2-trifluoroethyl)thiophene-2-carboxamide] | 25.1 | 933 | 231 to 233
5 | O=C(NCC(F)(F)F)c1nc(-c2ccc3nc(NC(=O)C4CC4)cn3c2)cs1 [Example 4, 4-(2-(cyclopropanecarboxamido)imidazo[1,2-a]pyridin-6-yl)-N-(2,2,2-trifluoroethyl)thiazole-2-carboxamide] | 5.01 | 617 | 279 to 282
6 | Cn1nc(-c2ccc3nc(NC(=O)C4CC4)cn3c2)cc1C(=O)NCC(F)F [Example 2, 3-(2-(cyclopropanecarboxamido)imidazo[1,2-a]pyridin-6-yl)-N-(2,2-difluoroethyl)-1-methyl-1H-pyrazole-5-carboxamide] | 316 | 8320 | 284 to 290
7 | CC(=O)Nc1cn2cc(-c3csc(C(=O)NCC(F)(F)F)c3)ccc2n1 [Example 13, 4-(2-acetamidoimidazo[1,2-a]pyridin-6-yl)-N-(2,2,2-trifluoroethyl)thiophene-2-carboxamide] | 25.1 | 813 | 180 to 182
8 | N[C@@H]1CCCC(F)(F)[C@@H]1NC(=O)c1cc(-c2ccc3nc(NC(=O)C4CC4)cn3c2)cs1 [Example 125, N-((1R,6R)-6-amino-2,2-difluorocyclohexyl)-4-(2-(cyclopropanecarboxamido)imidazo[1,2-a]pyridin-6-yl)thiophene-2-carboxamide] | 6.31 | 19.1 | 
9 | O=C(NCC(F)(F)F)c1cc(-c2cn3cc(NC(=O)C4CC4)nc3cn2)cs1 [Example 33, 4-(2-(cyclopropanecarboxamido)imidazo[1,2-a]pyrazin-6-yl)-N-(2,2,2-trifluoroethyl)thiophene-2-carboxamide] | 5.01 | 269 | 
10 | N#CC1CN(C(=O)c2nc(-c3ccc4nc(NC(=O)C5CC5)cn4c3)cs2)C1 [Example 102, N-(6-(2-(3-cyanoazetidine-1-carbonyl)thiazol-4-yl)imidazo[1,2-a]pyridin-2-yl)cyclopropanecarboxamide] | 200 | 776 | 
11 | O=C(NCC(F)F)c1cc(-c2cn3cc(NC(=O)C4CC4)nc3cn2)cs1 [Example 19, 4-(2-(cyclopropanecarboxamido)imidazo[1,2-a]pyrazin-6-yl)-N-(2,2-difluoroethyl)thiophene-2-carboxamide] | 5.01 | 407 | 
12 | CC(NC(=O)c1cc(-c2ccc3nc(NC(=O)C4CC4)cn3c2)cs1)C(F)(F)F (stereo not drawn) [Example 59, 4-(2-(cyclopropanecarboxamido)imidazo[1,2-a]pyridin-6-yl)-N-(1,1,1-trifluoropropan-2-yl)thiophene-2-carboxamide] | 20 | 240 | 
13 | O=C(NC1CCCC1(F)F)c1nc(-c2ccc3nc(NC(=O)C4CC4)cn3c2)cs1 (stereo not drawn) [Example 90, 4-(2-(cyclopropanecarboxamido)imidazo[1,2-a]pyridin-6-yl)-N-(2,2-difluorocyclopentyl)thiazole-2-carboxamide] | 39.8 | 1020 | 
14 | O=C(N[C@@H]1CCCOC1)c1cc(-c2ccc3nc(NC(=O)C4CC4)cn3c2)cs1 [Example 69, (R)-4-(2-(cyclopropanecarboxamido)imidazo[1,2-a]pyridin-6-yl)-N-(tetrahydro-2H-pyran-3-yl)thiophene-2-carboxamide] | 100 | 2880 | 
15 | O=C(NCC(F)(F)F)c1cc(-c2ccc3nc(NC(=O)C4CC4)cn3n2)cs1 [Example 44, 4-(2-(cyclopropanecarboxamido)imidazo[1,2-b]pyridazin-6-yl)-N-(2,2,2-trifluoroethyl)thiophene-2-carboxamide] | 3.98 | 214 | 
16 | COCCN(CC(F)(F)F)C(=O)c1cc(-c2ccc3nc(NC(=O)C4CC4)cn3c2)cs1 [Example 83, 4-(2-(cyclopropanecarboxamido)imidazo[1,2-a]pyridin-6-yl)-N-(2-methoxyethyl)-N-(2,2,2-trifluoroethyl)thiophene-2-carboxamide] | 20 | 646 | 
17 | O=C(NCCC(F)(F)F)c1cc(-c2ccc3nc(NC(=O)C4CC4)cn3c2)cs1 [Example 78, 4-(2-(cyclopropanecarboxamido)imidazo[1,2-a]pyridin-6-yl)-N-(3,3,3-trifluoropropyl)thiophene-2-carboxamide] | 10 | 479 | 
18 | CN(CC(F)(F)F)C(=O)c1cc(-c2ccc3nc(NC(=O)C4CC4)cn3c2)n[nH]1 [Example 106, 3-(2-(cyclopropanecarboxamido)imidazo[1,2-a]pyridin-6-yl)-N-methyl-N-(2,2,2-trifluoroethyl)-1H-pyrazole-5-carboxamide] | 31.6 | 589 | 
19 | O=C(NCC(F)(F)F)c1cc(-c2ccc3nc(NC(=O)C4CC4)cn3c2)cs1 [Example 32, 4-(2-(cyclopropanecarboxamido)imidazo[1,2-a]pyridin-6-yl)-N-(2,2,2-trifluoroethyl)thiophene-2-carboxamide] | 5.01 | 120 | 
20 | O=C(Nc1cn2cc(-c3csc(C(=O)N(CCCO)CC(F)(F)F)c3)ccc2n1)C1CC1 [Example 119, 4-(2-(cyclopropanecarboxamido)imidazo[1,2-a]pyridin-6-yl)-N-(3-hydroxypropyl)-N-(2,2,2-trifluoroethyl)thiophene-2-carboxamide] | 10 | 331 | 
21 | O=C(NCC(F)F)c1nc(-c2ccc3nc(NC(=O)C4CC4)cn3c2)c[nH]1 [Example 12, 4-{2-cyclopropaneamidoimidazo[1,2-a]pyridin-6-yl}-N-(2,2-difluoroethyl)-1H-imidazole-2-carboxamide] | 20 | 955 | 
22 | O=C(N[C@H]1CCCC[C@H]1O)c1cc(-c2ccc3nc(NC(=O)C4CC4)cn3c2)cs1 [Example 76, 4-(2-(cyclopropanecarboxamido)imidazo[1,2-a]pyridin-6-yl)-N-((1S,2R)-2-hydroxycyclohexyl)thiophene-2-carboxamide] | 15.8 | 912 | 
23 | CC(F)(F)CNC(=O)c1cc(-c2ccc3nc(NC(=O)C4CC4)cn3c2)cs1 [Example 57, 4-(2-(cyclopropanecarboxamido)imidazo[1,2-a]pyridin-6-yl)-N-(2,2-difluoropropyl)thiophene-2-carboxamide] | 10 | 219 | 
24 | Cc1sc(C(=O)NCC(F)(F)F)cc1-c1cn2cc(NC(=O)C3CC3)nc2cn1 [Example 30, 4-(2-(cyclopropanecarboxamido)imidazo[1,2-a]pyrazin-6-yl)-5-methyl-N-(2,2,2-trifluoroethyl)thiophene-2-carboxamide] | 25.1 | 6460 | 
25 | O=C(NCC(F)F)c1cc(-c2ccc3nc(NC(=O)C4CC4)cn3c2)n[nH]1 [Example 27, 5-(2-(cyclopropanecarboxamido)imidazo[1,2-a]pyridin-6-yl)-N-(2,2-difluoroethyl)-1H-pyrazole-3-carboxamide] | 31.6 | 3720 | 
